According to ChEMBL document CHEMBL4359925, “Rational discovery of a highly novel and selective mTOR inhibitor” (Bioorg Med Chem Lett, 2019):
Calls of active or inactive are those of the source. No cut-off for these calls is given here.

Key:
[1] = system: NCI-H1975; assay: Additive antiproliferative activity against human NCI-H1975 cells harboring EGFR […]/T790M mutant in presence of gemcitabine; type: functional, cell-based
[2] = Half-life in mouse at 8.7 mg/kg, po; type: ADME, organism-based; settings: in vivo
[3] = system: NCI-H1395; assay: Additive antiproliferative activity against human NCI-H1395 cells harboring LKB1 mutant in presence of erlotinib; type: functional, cell-based
[4] = Tmax in rat at 30 mg/kg, po; type: ADME, organism-based; settings: in vivo
[5] = Half-life in dog at 0.45 mg/kg, po; type: ADME, organism-based, Canis lupus familiaris; settings: in vivo
[6] = system: NCI-H1650; assay: Additive antiproliferative activity against human NCI-H1650 cells harboring EGFR E746-A750del mutant in presence of gemcitabine; type: functional, cell-based
[7] = Tmax in dog at 30 mg/kg, po; type: ADME, organism-based, Canis lupus familiaris; settings: in vivo
[8] = Cmax in rat at 31 mg/kg, po; type: ADME, organism-based; set-up: dose 31 mg/kg, route oral; settings: in vivo
[9] = Half-life in rat at 160 mg/kg, po; type: ADME, organism-based; settings: in vivo
[10] = Cmax in dog at 30 mg/kg, po; type: ADME, organism-based, Canis lupus familiaris; set-up: dose 30 mg/kg, route oral; settings: in vivo
[11] = Cmax in rat at 30 mg/kg, po; type: ADME, organism-based; set-up: dose 30 mg/kg, route oral; settings: in vivo
[12] = Cmax in rat at 100 mg/kg, po; type: ADME, organism-based; set-up: dose 100 mg/kg, route oral; settings: in vivo
[13] = Cmax in mouse at 2.8 mg/kg, iv; type: ADME, organism-based; set-up: dose 2.8 mg/kg, route intravenous; settings: in vivo
[14] = Cmax in rat at 83 mg/kg, po; type: ADME, organism-based; set-up: dose 83 mg/kg, route oral; settings: in vivo
[15] = system: MCF7; assay: Antiproliferative activity against human MCF7; type: functional, cell-based
[16] = Half-life in rat at 95 mg/kg, po; type: ADME, organism-based; settings: in vivo
[17] = system: NCI-H1650; assay: Additive antiproliferative activity against human NCI-H1650 cells harboring EGFR E746-A750del mutant in presence of erlotinib; type: functional, cell-based
[18] = Tmax in rat at 95 mg/kg, po; type: ADME, organism-based; settings: in vivo
[19] = target: Phosphatidylinositol 4,5-bisphosphate 3-kinase catalytic subunit alpha isoform (Homo sapiens, UniProt P42336); assay: Inhibition of PI3K alpha (unknown origin)
Sequence of Phosphatidylinositol 4,5-bisphosphate 3-kinase catalytic subunit alpha isoform (P42336 whole entry, canonical isoform): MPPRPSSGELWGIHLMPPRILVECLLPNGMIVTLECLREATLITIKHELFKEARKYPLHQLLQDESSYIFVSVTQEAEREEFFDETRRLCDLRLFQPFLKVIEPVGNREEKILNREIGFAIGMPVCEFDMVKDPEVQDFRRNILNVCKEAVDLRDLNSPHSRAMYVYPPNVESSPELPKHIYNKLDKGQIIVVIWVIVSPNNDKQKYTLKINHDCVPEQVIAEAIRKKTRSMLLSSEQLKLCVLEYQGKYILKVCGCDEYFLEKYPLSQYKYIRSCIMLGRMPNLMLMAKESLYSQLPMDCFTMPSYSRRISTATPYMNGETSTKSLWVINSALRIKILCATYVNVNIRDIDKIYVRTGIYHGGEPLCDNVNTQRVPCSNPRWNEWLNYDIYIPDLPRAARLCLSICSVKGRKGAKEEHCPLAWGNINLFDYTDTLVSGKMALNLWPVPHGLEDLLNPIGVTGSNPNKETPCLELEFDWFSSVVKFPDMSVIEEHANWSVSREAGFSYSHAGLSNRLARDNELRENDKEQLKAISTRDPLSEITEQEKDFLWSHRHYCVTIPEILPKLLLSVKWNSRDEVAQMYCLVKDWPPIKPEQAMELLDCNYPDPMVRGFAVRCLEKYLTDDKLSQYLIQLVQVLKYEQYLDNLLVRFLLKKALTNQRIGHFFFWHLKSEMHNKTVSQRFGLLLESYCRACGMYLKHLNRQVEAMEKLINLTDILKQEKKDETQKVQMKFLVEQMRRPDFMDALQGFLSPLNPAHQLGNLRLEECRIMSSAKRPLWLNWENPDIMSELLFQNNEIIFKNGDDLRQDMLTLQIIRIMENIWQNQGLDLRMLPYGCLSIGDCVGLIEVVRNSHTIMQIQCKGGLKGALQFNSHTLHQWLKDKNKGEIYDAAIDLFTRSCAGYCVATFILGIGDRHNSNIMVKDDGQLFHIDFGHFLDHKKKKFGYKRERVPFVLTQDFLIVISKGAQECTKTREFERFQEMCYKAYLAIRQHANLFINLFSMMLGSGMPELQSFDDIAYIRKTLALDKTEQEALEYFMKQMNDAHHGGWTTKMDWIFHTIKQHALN

[20] = Half-life in rat at 3 mg/kg, po; type: ADME, organism-based; settings: in vivo
[21] = Half-life in rat at 93 mg/kg, po; type: ADME, organism-based; settings: in vivo
[22] = Half-life in dog at 10 mg/kg, po; type: ADME, organism-based, Canis lupus familiaris; settings: in vivo
[23] = system: HT-29; assay: Antiproliferative activity against human HT-29; type: functional, cell-based
[24] = Tmax in dog at 10 mg/kg, po; type: ADME, organism-based, Canis lupus familiaris; settings: in vivo
[25] = Half-life in rat at 100 mg/kg, po; type: ADME, organism-based; settings: in vivo
[26] = system: NCI-H460; assay: Antiproliferative activity against human H460 cells; type: functional, cell-based
[27] = system: A498; assay: Antiproliferative activity against human A498; type: functional, cell-based
[28] = Half-life in mouse at 2.8 mg/kg, iv; type: ADME, organism-based; settings: in vivo
[29] = Cmax in dog at 10 mg/kg, po; type: ADME, organism-based, Canis lupus familiaris; set-up: dose 10 mg/kg, route oral; settings: in vivo
[30] = Cmax in rat at 0.8 mg/kg, iv; type: ADME, organism-based; set-up: dose 0.8 mg/kg, route intravenous; settings: in vivo
[31] = Volume of distribution at steady state in mouse at 10.4 mg/kg, iv; type: ADME, organism-based; settings: in vivo, read-out: Vdss
[32] = Tmax in rat at 4.1 mg/kg, po; type: ADME, organism-based; settings: in vivo
[33] = Clearance in mouse at 10.4 mg/kg, iv; type: ADME, organism-based; settings: in vivo
[34] = Tmax in rat at 100 mg/kg, po; type: ADME, organism-based; settings: in vivo
[35] = Clearance in rat at 0.8 mg/kg, iv; type: ADME, organism-based; settings: in vivo
[36] = Tmax in mouse at 26 mg/kg, po; type: ADME, organism-based; settings: in vivo
[37] = system: NCI-H460; assay: Synergistic antiproliferative activity against human H460 cells harboring KRAS […] mutant in presence of gemcitabine
[38] = Half-life in rat at 83 mg/kg, po; type: ADME, organism-based; settings: in vivo
[39] = Cmax in dog at 0.2 mg/kg, iv; type: ADME, organism-based, Canis lupus familiaris; set-up: dose 0.2 mg/kg, route intravenous; settings: in vivo
[40] = system: NCI-H460; assay: Synergistic antiproliferative activity against human H460 cells harboring LKB1 mutant in presence of gemcitabine; type: functional, cell-based
[41] = Half-life in rat at 30 mg/kg, po; type: ADME, organism-based; settings: in vivo
[42] = Tmax in rat at 3 mg/kg, po; type: ADME, organism-based; settings: in vivo
[43] = system: A549; assay: Synergistic antiproliferative activity against human A549 cells harboring KRAS G12S mutant in presence of erlotinib; type: functional, cell-based
[44] = system: 786-0; assay: Antitumour activity against human 786-O cells in xenograft model assessed as tumour growth inhibition at 30 mg/kg, qd; type: functional, organism-based
[45] = system: A549; assay: Synergistic antiproliferative activity against human A549 cells harboring LKB1 mutant in presence of erlotinib; type: functional, cell-based
[46] = system: NCI-H292; assay: Additive antiproliferative activity against human NCI-H292 cells in presence of erlotinib; type: functional, cell-based
[47] = Cmax in dog at 0.45 mg/kg, po; type: ADME, organism-based, Canis lupus familiaris; set-up: dose 0.45 mg/kg, route oral; settings: in vivo

For `CC(F)(F)CN1C(=O)[C@]2(C)COCCN2c2nc(-c3ccc(NC(=O)NC4CC4)cc3)ncc21`, the Activity [1] was “Active”, the half-life [2] was 138 min and the Activity [3] was “Active”. For the same compound, the Tmax [4] was 4 to 8 h, the half-life [5] was 618 min and the Activity [6] was “Active”. It also gave a Tmax [7] of 7.3 h, a Cmax [8] of 1910 to 2700 ng/mL and a half-life [9] of 1280 min. The Cmax [10] was 726 ng/mL, the Cmax [11] was 1850 to 2400 ng/mL and the Cmax [12] was 3670 to 6410 ng/mL. For the same compound, the Cmax [13] was 6860 ng/mL, the Cmax [14] was 2370 ng/mL and the Activity [15] was “Active”. The half-life [16] was 2030 min, the Activity [17] was “Active” and the Tmax [18] was 13.3 h. It also gave an IC50 [19] of 1260 nM, a half-life [20] of 618 min and a half-life [21] of 1400 min. For the same compound, the half-life [22] was 594 min, the Activity [23] was “Active” and the Tmax [24] was 10.7 h. For the same compound, the half-life [25] was 882 to 900 min, the Activity [26] was “Active” and the Activity [27] was “Active”. It also gave a half-life [28] of 162 min, a Cmax [29] of 549 ng/mL and a Cmax [30] of 873 ng/mL. The Vd [31] was 1.16 L/kg, the Tmax [32] was 4 h and the clearance [33] was 4 mL/min/kg. The Tmax [34] was 4.7 to 14.7 h, the clearance [35] was 6.9 mL/min/kg and the Tmax [36] was 6 h. For the same compound, the Activity [37] was “Active”, the half-life [38] was 324 min and the Cmax [39] was 278 ng/mL. For the same compound, the Activity [40] was “Active”, the half-life [41] was 540 to 810 min and the Tmax [42] was 6.7 h. For the same compound, the Activity [43] was “Active”, the TGI [44] was “Active” and the Activity [45] was “Active”. The Activity [46] was “Active” and the Cmax [47] was 250 ng/mL.
